Measurements as given in BigSolDB 2.1.

COc1cc2nccc(Oc3ccc(NC(=O)C4(C(=O)Nc5ccc(F)cc5)CC4)cc3)c2cc1OC.O=C(O)C[C@H](O)C(=O)O
solubility (mole fraction)
Conditions | 298.2 K | 303.2 K | 308.2 K | 313.2 K | 318.2 K
in DMSO | 0.0332 | 0.0353 | 0.0376 | 0.0404 | 0.0435
in ethanol | 0.000391 | 0.000507 | 0.000724 | 0.000977 | 0.00127
in ethyl acetate | 8.8e-05 | 0.000135 | 0.000187 | 0.000277 | 0.000415
in ethylene glycol | 0.000426 | 0.000605 | 0.000839 | 0.00109 | 0.00138
in isopropanol | 0.000529 | 0.00068 | 0.000944 | 0.0013 | 0.00169
in methanol | 0.000169 | 0.000262 | 0.000372 | 0.000503 | 0.000705
in n-butanol | 0.000675 | 0.000932 | 0.00128 | 0.00166 | 0.00215
in propylene glycol | 0.000715 | 0.00098 | 0.00131 | 0.00179 | 0.00238
in sec-butanol | 0.000687 | 0.000943 | 0.00135 | 0.00173 | 0.00221
in transcutol | 0.00179 | 0.00231 | 0.00315 | 0.0042 | 0.00545
in water | 2.27e-07 | 3.4e-07 | 4.82e-07 | 6.52e-07 | 8.5e-07

Conditions | solubility (mole fraction)
in PEG-400, 298.2 K | 0.00354
in PEG-400, 303.2 K | 0.00538
in PEG-400, 308.2 K | 0.00749
in PEG-400, 313.2 K | 0.0105
in PEG-400, 318.2 K | 0.0142
